Values belong to the compound of their own block, whether it stands above or below them.
What was measured:
[1] = system: Beet Armyworm (BAW) (Spodoptera exigua); assay: Bioassays on Beet Armyworm (BAW), 128-well diet tray assay; type: in vivo; settings: 168 h, 50 μg/cm^2 test compound on artificial diet, second instar larvae, 25° C., five to seven days, average of eight wells, read-out: BAW Rating (% mortality)
How it was run: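 Second-instar larvae (1–5 per well) on artificial diet surface-treated with 50 μg/cm^2 compound applied in 90:10 acetone-water and dried; eight wells per compound. Held 5–7 days at 25° C., 14:10 light-dark. Percent mortality scored per well and averaged over eight wells.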

[2] = system: Corn Earworm (CEW) (Helicoverpa zea); assay: Bioassays on Corn Earworm (CEW), 128-well diet tray assay; type: in vivo; settings: 168 h, 50 μg/cm^2 test compound on artificial diet, second instar larvae, 25° C., five to seven days, average of eight wells, read-out: CEW Rating (% mortality)
How it was run: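 Second-instar larvae (one to five per well) placed on artificial diet treated with 50 μg/cm^2 compound in 90:10 acetone-water, dried; eight wells per compound. Held at 25° C, 14:10 light-dark, five to seven days; percent mortality averaged over wells.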

melting point: 110 to 112 °C
Structure (SMILES): NC(=O)c1ccc(/C=C/C(c2cc(Cl)cc(Cl)c2)C(F)(F)F)cc1 (stereo not shown) [AC2]

Structure (SMILES): N#Cc1cc(/C=C/C(c2cccc(Cl)c2)C(F)(F)F)ccc1-n1cncn1 (stereo not shown) [DC32]
mortality at 50 µg/cm2 [1]: 0%
mortality at 50 µg/cm2 [2]: 0%

Structure (SMILES): N#Cc1cc(/C=C/C(c2cc(Cl)cc(C(F)(F)F)c2)C(F)(F)F)ccc1-n1cncn1 (stereo not shown) [DC33]
mortality at 50 µg/cm2 [1]: 50 to 100%
mortality at 50 µg/cm2 [2]: 50 to 100%

Structure (SMILES): COc1c(Cl)cc(C(/C=C/c2ccc(-n3cncn3)c(C#N)c2)C(F)(F)F)cc1Cl (stereo not shown) [DC34]
mortality at 50 µg/cm2 [1]: 50 to 100%
mortality at 50 µg/cm2 [2]: 50 to 100%

Structure (SMILES): N#Cc1cc(/C=C/C(c2cc(Cl)c(F)c(Cl)c2)C(F)(F)F)ccc1-n1cncn1 (stereo not shown) [DC35]
mortality at 50 µg/cm2 [1]: 50 to 100%
mortality at 50 µg/cm2 [2]: 50 to 100%

Structure (SMILES): Cc1ncn(-c2ccc(/C=C/C(c3cc(Cl)cc(Cl)c3)C(F)(F)F)cc2C#N)n1 (stereo not shown) [DC36]
mortality at 50 µg/cm2 [1]: 0%
mortality at 50 µg/cm2 [2]: 0%

Structure (SMILES): N#Cc1cc(/C=C/C(c2cc(Cl)cc(Cl)c2)C(F)(F)F)ccc1-n1cnc([N+](=O)[O-])n1 (stereo not shown) [DC37]
mortality at 50 µg/cm2 [1]: 50 to 100%
mortality at 50 µg/cm2 [2]: 50 to 100%

Structure (SMILES): N#Cc1cc(/C=C/C(c2cc(Cl)cc(Cl)c2)C(F)(F)F)ccc1-n1cnc(N)n1 (stereo not shown) [DC38]
mortality at 50 µg/cm2 [1]: 50 to 100%
mortality at 50 µg/cm2 [2]: 50 to 100%

Structure (SMILES): CC(=O)Nc1ncn(-c2ccc(/C=C/C(c3cc(Cl)cc(Cl)c3)C(F)(F)F)cc2C#N)n1 (stereo not shown) [DC39]
mortality at 50 µg/cm2 [1]: 50 to 100%
mortality at 50 µg/cm2 [2]: 50 to 100%

Structure (SMILES): N#Cc1cc(/C=C/C(c2cc(Cl)c(Cl)c(Cl)c2)C(F)(F)F)ccc1-n1cnc([N+](=O)[O-])n1 (stereo not shown) [DC40, (E)-2-(3-nitro-1H-1,2,4-triazol-1-yl)-5-(4,4,4-trifluoro-3-(3,4,5-trichlorophenyl)but-1-en-1-yl)benzonitrile]
mortality at 50 µg/cm2 [1]: 50 to 100%
mortality at 50 µg/cm2 [2]: 50 to 100%

Structure (SMILES): N#Cc1cc(/C=C/C(c2cc(Cl)c(Cl)c(Cl)c2)C(F)(F)F)ccc1-n1cnc(N)n1 (stereo not shown) [DC41, (E)-2-(3-amino-1H-1,2,4-triazol-1-yl)-5-(4,4,4-trifluoro-3-(3,4,5-trichlorophenyl)but-1-en-1-yl)benzonitrile]
mortality at 50 µg/cm2 [1]: 50 to 100%
mortality at 50 µg/cm2 [2]: 50 to 100%

Structure (SMILES): N#Cc1cc(/C=C/C(c2cc(Cl)c(Cl)c(Cl)c2)C(F)(F)F)ccc1-n1cnc(N(C(=O)C2CC2)C(=O)C2CC2)n1 (stereo not shown) [DC42, (E)-N-(1-(2-cyano-4-(4,4,4-trifluoro-3-(3,4,5-trichlorophenyl)but-1-en-1-yl)phenyl)-1H-1,2,4-triazol-3-yl)-N-(cyclopropanecarbonyl)cyclopropanecarboxamide]
mortality at 50 µg/cm2 [1]: 50 to 100%
mortality at 50 µg/cm2 [2]: 50 to 100%

Structure (SMILES): N#Cc1cc(/C=C/C(c2cc(Cl)c(Cl)c(Cl)c2)C(F)(F)F)ccc1-n1cnc(NC(=O)C2CC2)n1 (stereo not shown) [DC43, (E)-N-(1-(2-cyano-4-(4,4,4-trifluoro-3-(3,4,5-trichlorophenyl)but-1-en-1-yl)phenyl)-1H-1,2,4-triazol-3-yl)cyclopropanecarboxamide]
mortality at 50 µg/cm2 [1]: 50 to 100%
mortality at 50 µg/cm2 [2]: 50 to 100%

Structure (SMILES): Cc1cc(/C=C/C(c2cc(Cl)cc(Cl)c2)C(F)(F)F)cc(C#N)c1-n1cncn1 (stereo not shown) [DC44]
mortality at 50 µg/cm2 [1]: 50 to 100%
mortality at 50 µg/cm2 [2]: 50 to 100%

Structure (SMILES): Cc1cc(/C=C/C(c2cc(Cl)c(Cl)c(Cl)c2)C(F)(F)F)cc(C#N)c1-n1cncn1 (stereo not shown) [DC45]
mortality at 50 µg/cm2 [1]: 50 to 100%
mortality at 50 µg/cm2 [2]: 50 to 100%

Structure (SMILES): N#Cc1cc(/C=C\C(c2cc(Cl)c(F)c(Cl)c2)C(F)(F)F)ccc1-n1cncn1 (stereo not shown) [DC46]
mortality at 50 µg/cm2 [1]: 50 to 100%
mortality at 50 µg/cm2 [2]: 50 to 100%

Structure (SMILES): FC(F)(F)C(/C=C/c1ccc(-n2cncn2)c(Br)c1)c1cc(Cl)cc(Cl)c1 (stereo not shown) [DC47]
mortality at 50 µg/cm2 [1]: 50 to 100%
mortality at 50 µg/cm2 [2]: 50 to 100%

Structure (SMILES): Fc1cc(/C=C/C(c2cc(Cl)cc(Cl)c2)C(F)(F)F)ccc1-n1cncn1 (stereo not shown) [DC48]
mortality at 50 µg/cm2 [1]: 50 to 100%
mortality at 50 µg/cm2 [2]: 50 to 100%

Structure (SMILES): FC(F)(F)C(/C=C/c1ccc(-n2cncn2)c(Cl)c1)c1cc(Cl)c(Cl)c(Cl)c1 (stereo not shown) [DC49]
mortality at 50 µg/cm2 [1]: 50 to 100%
mortality at 50 µg/cm2 [2]: 50 to 100%

Structure (SMILES): FC(F)(F)C(/C=C/c1ccc(-n2cncn2)c(Cl)c1)c1cc(Cl)cc(Cl)c1 (stereo not shown) [DC50]
mortality at 50 µg/cm2 [1]: 50 to 100%
mortality at 50 µg/cm2 [2]: 50 to 100%

Structure (SMILES): FC(F)(F)c1cc(/C=C/C(c2cc(Cl)cc(Cl)c2)C(F)(F)F)ccc1-n1cncn1 (stereo not shown) [DC51]
mortality at 50 µg/cm2 [1]: 50 to 100%
mortality at 50 µg/cm2 [2]: 50 to 100%

Structure (SMILES): O=Cc1cc(/C=C/C(c2cc(Cl)cc(Cl)c2)C(F)(F)F)ccc1-n1cncn1 (stereo not shown) [DC52, (E)-5-(3-(3,5-dichlorophenyl)-4,4,4-trifluorobut-1-en-1-yl)-2-(1H-1,2,4-triazol-1-yl)benzaldehyde]
mortality at 50 µg/cm2 [1]: 0%
mortality at 50 µg/cm2 [2]: 0%

Structure (SMILES): OCc1cc(/C=C/C(c2cc(Cl)cc(Cl)c2)C(F)(F)F)ccc1-n1cncn1 (stereo not shown) [DC53]
mortality at 50 µg/cm2 [1]: 0%
mortality at 50 µg/cm2 [2]: 50 to 100%

Structure (SMILES): O=[N+]([O-])c1cc(/C=C/C(c2cc(Cl)cc(Cl)c2)C(F)(F)F)ccc1-n1cncn1 (stereo not shown) [DC54]
mortality at 50 µg/cm2 [1]: 0%
mortality at 50 µg/cm2 [2]: 0%

Structure (SMILES): Nc1cc(/C=C/C(c2cc(Cl)cc(Cl)c2)C(F)(F)F)ccc1-n1cncn1 (stereo not shown) [DC55]
mortality at 50 µg/cm2 [1]: 0%
mortality at 50 µg/cm2 [2]: 0%

Structure (SMILES): CC(=O)Nc1cc(/C=C/C(c2cc(Cl)cc(Cl)c2)C(F)(F)F)ccc1-n1cncn1 (stereo not shown) [DC56]
mortality at 50 µg/cm2 [1]: 0%
mortality at 50 µg/cm2 [2]: 0%

Structure (SMILES): CNc1cc(/C=C/C(c2cc(Cl)cc(Cl)c2)C(F)(F)F)ccc1-n1cncn1 (stereo not shown) [DC57, (E)-5-(3-(3,5-dichlorophenyl)-4,4,4-trifluorobut-1-en-1-yl)-N-methyl-2-(1H-1,2,4-triazol-1-yl)aniline]
mortality at 50 µg/cm2 [1]: 50 to 100%
mortality at 50 µg/cm2 [2]: 50 to 100%

Structure (SMILES): NC(=O)c1cc(/C=C/C(c2cc(Cl)cc(Cl)c2)C(F)(F)F)ccc1-n1cncn1 (stereo not shown) [DC58]
mortality at 50 µg/cm2 [1]: 0%
mortality at 50 µg/cm2 [2]: 0%

Structure (SMILES): N/C(=N\O)c1cc(/C=C/C(c2cc(Cl)cc(Cl)c2)C(F)(F)F)ccc1-n1cncn1 (stereo not shown) [DC59, (Z)-5-((E)-3-(3,5-dichlorophenyl)-4,4,4-trifluorobut-1-en-1-yl)-N′-hydroxy-2-(1H-1,2,4-triazol-1-yl)benzimidamide]
mortality at 50 µg/cm2 [1]: 0%
mortality at 50 µg/cm2 [2]: 0%

Structure (SMILES): CCOC(=O)c1cc(/C=C/C(c2cc(Cl)cc(Cl)c2)C(F)(F)F)ccc1-n1cncn1 (stereo not shown) [DC60]
mortality at 50 µg/cm2 [1]: 50 to 100%
mortality at 50 µg/cm2 [2]: 50 to 100%

Structure (SMILES): O=C(O)c1cc(/C=C/C(c2cc(Cl)cc(Cl)c2)C(F)(F)F)ccc1-n1cncn1 (stereo not shown) [DC61, (E)-5-(3-(3,5-dichlorophenyl)-4,4,4-trifluorobut-1-en-1-yl)-2-(1H-1,2,4-triazol-1-yl)benzoic acid]
mortality at 50 µg/cm2 [1]: 0%
mortality at 50 µg/cm2 [2]: 0%

Structure (SMILES): Cc1cc(/C=C/C(c2cc(Cl)cc(Cl)c2)C(F)(F)F)ccc1-n1cncn1 (stereo not shown) [DC62]
mortality at 50 µg/cm2 [1]: 50 to 100%
mortality at 50 µg/cm2 [2]: 50 to 100%

Structure (SMILES): Cc1cc(/C=C/C(c2cc(Cl)c(Cl)c(Cl)c2)C(F)(F)F)ccc1-n1cncn1 (stereo not shown) [DC63]
mortality at 50 µg/cm2 [1]: 50 to 100%
mortality at 50 µg/cm2 [2]: 50 to 100%

Structure (SMILES): FC(F)(F)C(/C=C/c1ccc(-n2cncn2)c(-c2ccncc2)c1)c1cc(Cl)cc(Cl)c1 (stereo not shown) [DC64]
mortality at 50 µg/cm2 [1]: 0%
mortality at 50 µg/cm2 [2]: 0%

Structure (SMILES): Cc1cc(-n2cncn2)ccc1/C=C/C(c1cc(Cl)cc(Cl)c1)C(F)(F)F (stereo not shown) [DC65]
mortality at 50 µg/cm2 [1]: 0%
mortality at 50 µg/cm2 [2]: 50 to 100%

Structure (SMILES): FC(F)(F)C(/C=C/c1ccc(-n2cncn2)cc1Cl)c1cc(Cl)c(Cl)c(Cl)c1 (stereo not shown) [DC66]
mortality at 50 µg/cm2 [1]: 50 to 100%
mortality at 50 µg/cm2 [2]: 50 to 100%

Structure (SMILES): FC(F)(F)C(/C=C/c1ccc(-n2cncn2)cc1Cl)c1cc(Cl)cc(Cl)c1 (stereo not shown) [DC67]
mortality at 50 µg/cm2 [1]: 50 to 100%
mortality at 50 µg/cm2 [2]: 50 to 100%

Structure (SMILES): C/C(=C\C(c1cc(Cl)cc(Cl)c1)C(F)(F)F)c1ccc(-n2cncn2)cc1 (stereo not shown) [DC68, (E)-1-(4-(4-(3,5-dichlorophenyl)-5,5,5-trifluoropent-2-en-2-yl)phenyl)-1H-1,2,4-triazole]
mortality at 50 µg/cm2 [1]: 50 to 100%
mortality at 50 µg/cm2 [2]: 50 to 100%

Structure (SMILES): OC(/C=C/c1ccc(-n2cncn2)cc1)(c1cc(Cl)cc(Cl)c1)C(F)(F)F (stereo not shown) [DC69, (E)-4-(4-(1H-1,2,4-triazol-1-yl)phenyl)-2-(3,5-dichlorophenyl)-1,1,1-trifluorobut-3-en-2-ol]
mortality at 50 µg/cm2 [1]: 0%
mortality at 50 µg/cm2 [2]: 0%

Structure (SMILES): COC(/C=C/c1ccc(-n2cncn2)cc1)(c1cc(Cl)cc(Cl)c1)C(F)(F)F (stereo not shown) [DC70, (E)-1-(4-(3-(3,5-dichlorophenyl)-4,4,4-trifluoro-3-methoxybut-1-en-1-yl)phenyl)-1H-1,2,4-triazole]
mortality at 50 µg/cm2 [1]: 50 to 100%
mortality at 50 µg/cm2 [2]: 50 to 100%

Source: patent US9615576B2, “Pesticidal compositions and processes related thereto” (Dow AgroSciences LLC, priority 2011, dated 2017)
